One data set relates to Sprague-Dawley rats. In words: Intranasal delivery of gentamicin, serum gentamicin by fluorescence polarization immunoassay. The class given is in vivo. The following applies: 5 mg/kg gentamicin, 1.32 mM enhancer. The method, then: Experimental Conditions: Sprague-Dawley rats (male, 205-240 g) were anesthetized by intramuscular injection of 7.5 mg/kg xylazine with 50 mg/kg ketamine. Gentamicin (40 μl) was administered intranasally at time 0. Formulations contained 5 mg/kg gentamicin, with and without 1.32 mM QH-957. Blood was withdrawn from the tail vein at various timepoints. Serum gentamicin levels were measured using a fluorescence polarization immunoassay. The assay was linear from 0.3-10.0 μg/ml, and the limit of detection was 0.3 μg/ml. A value of 0.3 μg/ml was used in plotting the timepoints with serum levels below the limit of detection. Groups of 3 animals were used. Data are presented as ±standard error of the mean.
Experimental Conditions: Sprague-Dawley rats (male, 205-240 g) were anesthetized by intramuscular injection of 7.5 mg/kg xylazine with 50 mg/kg ketamine. Gentamicin (40 μl) was administered intranasally at time 0. […] Serum gentamicin levels were measured using a fluorescence polarization immunoassay. […]
Sprague-Dawley rats (male, 205-240 g) were anesthetized by intramuscular injection of 7.5 mg/kg xylazine with 50 mg/kg ketamine. […] Serum gentamicin levels were measured using a fluorescence polarization immunoassay. […] The area under the serum gentamicin concentration curve (AUC) was calculated using the trapezoidal rule. […]
Background: In fluorescence polarisation assays a small probe gives low polarisation when free and higher when bound to something large.

The conditions of data set [1]: literature values; cited from earlier work.
A further data set relates to rabbits. To be noted: nasal administration; cited from earlier work.

Take `CC1(C)[C@@H](O[C@H]2O[C@H](C(=O)O)[C@@H](O)[C@H](O)[C@H]2O[C@@H]2O[C@H](C(=O)O)[C@@H](O)[C@H](O)[C@H]2O)CC[C@]2(C)[C@H]3C(=O)C=C4[C@@H]5C[C@@](C)(C(=O)O)CC[C@]5(C)CC[C@@]4(C)[C@]3(C)CC[C@@H]12` [glycyrrhizic acid]: the “enhanced intranasal permeation of gentamicin (serum gentamicin levels)” value in the data set with Sprague-Dawley rats is on record as “did not”. In addition, in data set [1], the “concentration needed for drug delivery” value is listed as 23.8 mM.
In the case of `C[C@H](CCC(=O)NCC(=O)[O-])[C@H]1CC[C@H]2[C@@H]3[C@H](O)C[C@@H]4C[C@H](O)CC[C@]4(C)[C@H]3C[C@H](O)[C@]12C.[Na+]` [sodium glycocholate], the “enhanced intranasal permeation of gentamicin (serum gentamicin levels)” value with Sprague-Dawley rats is on record as “did not”. Besides, the “total absorption of β-interferon relative to intravenous administration” value with rabbits is 2.2%. The “concentration needed for drug delivery” value in data set [1] is 20.5 mM.

Source of the values: patent US5650398A, “Drug delivery enhancement via modified saponins” (Cambridge Biotech Corporation, priority 1995, dated 1997).
